# Data taken from patent US10675360B2 (MADRIGAL PHARMACEUTICALS, INC., priority 2014, dated 2020).
# Test: Stability in mouse plasma
# Format: in vitro ADME
# Settings: mouse plasma; 1 h, 37° C.
row,SMILES,% Remaining
1,"CCc1c2c(nc3ccc(OC(=O)N(C)CCn4ccc5cc(-n6c(O)nnc6-c6cc(C(C)C)c(O)cc6O)ccc54)cc13)-c1cc3c(c(=O)n1C2)COC(=O)C3(O)CC (stereo not drawn) [SDC-TRAP-0022, 4,11-diethyl-4-hydroxy-3,14-dioxo-3,4,12,14-tetrahydro-1H-pyrano[3′,4′:6,7]indolizino[1,2-b]quinolin-9-yl (2-(5-(3-(2,4-dihydroxy-5-isopropylphenyl)-5-hydroxy-4H-1,2,4-triazol-4-yl)-1H-indol-1-yl)ethyl)(methyl)carbamate]",21%
2,"CCNC(=O)c1nnc(-c2cc(C(C)C)c(O)cc2O)n1-c1ccc(CN2CCC(C(=O)N3CCC(N(C)C(=O)Oc4ccc5nc6c(c(CC)c5c4)Cn4c-6cc5c(c4=O)COC(=O)C5(O)CC)CC3)CC2)cc1 (stereo not drawn) [SDC-TRAP-0172, 4,11-diethyl-4-hydroxy-3,14-dioxo-3,4,12,14-tetrahydro-1H-pyrano[3′,4′:6,7]indolizino[1,2-b]quinolin-9-yl (1-(1-(4-(3-(2,4-dihydroxy-5-isopropylphenyl)-5-(ethylcarbamoyl)-4H-1,2,4-triazol-4-yl)benzyl)piperidine-4-carbonyl)piperidin-4-yl)(methyl)carbamate]",74.7%
3,"CCNC(=O)c1nnc(-c2cc(C(C)C)c(O)cc2O)n1-c1ccc(Oc2ccc(C(=O)N3CCC(N(C)C(=O)Oc4ccc5nc6c(c(CC)c5c4)Cn4c-6cc5c(c4=O)COC(=O)C5(O)CC)CC3)cc2)cc1 (stereo not drawn) [SDC-TRAP-0180, 4,11-Diethyl-4-hydroxy-3,14-dioxo-3,4,12,14-tetrahydro-1H-pyrano[3′,4′:6,7]indolizino[1,2-b]quinolin-9-yl (1-(4-(4-(3-(2,4-dihydroxy-5-isopropylphenyl)-5-(ethylcarbamoyl)-4H-1,2,4-triazol-4-yl)phenoxy)benzoyl)piperidin-4-yl)(methyl)carbamate]",72.4%
4,"CCc1c2c(nc3ccc(O)cc13)-c1cc3c(c(=O)n1C2)COC(=O)[C@@]3(CC)OC(=O)N1CCC(CCc2ccc(-n3c(O)nnc3-c3cc(C(C)C)c(O)cc3O)cc2)CC1 [SDC-TRAP-0104, (S)-4,11-diethyl-9-hydroxy-3,14-dioxo-3,4,12,14-tetrahydro-1H-pyrano[3′,4′:6,7]indolizino[1,2-b]quinolin-4-yl 4-(4-(3-(2,4-dihydroxy-5-isopropylphenyl)-5-hydroxy-4H-1,2,4-triazol-4-yl)phenethyl)piperidine-1-carboxylate]",95.5%
5,"CCNC(=O)c1nnc(-c2cc(C(C)C)c(O)cc2O)n1-c1ccc2c(ccn2CCC2CCN(C(=O)Oc3ccc4nc5c(c(CC)c4c3)Cn3c-5cc4c(c3=O)COC(=O)[C@]4(O)CC)CC2)c1 [SDC-TRAP-0205, (S)-4,11-diethyl-4-hydroxy-3,14-dioxo-3,4,12,14-tetrahydro-1H-pyrano[3′,4′:6,7]indolizino[1,2-b]quinolin-9-yl 4-(2-(5-(3-(2,4-dihydroxy-5-isopropylphenyl)-5-(ethylcarbamoyl)-4H-1,2,4-triazol-4-yl)-1H-indol-1-yl)ethyl)piperidine-1-carboxylate]",58.4%
6,"CCNC(=O)c1nnc(-c2cc(C(C)C)c(O)cc2O)n1-c1ccc(OC2CCN(C(=O)CN(C)C(=O)Oc3ccc4nc5c(c(CC)c4c3)Cn3c-5cc4c(c3=O)COC(=O)[C@]4(O)CC)CC2)cc1 [SDC-TRAP-0206, (S)-4,11-diethyl-4-hydroxy-3,14-dioxo-3,4,12,14-tetrahydro-1H-pyrano[3′,4′:6,7]indolizino[1,2-b]quinolin-9-yl(2-(4-(4-(3-(2,4-dihydroxy-5-isopropylphenyl)-5-(ethylcarbamoyl)-4H-1,2,4-triazol-4-yl)phenoxy)piperidin-1-yl)-2-oxoethyl)(methyl)carbamate]",68.6%
7,"CCNC(=O)c1nnc(-c2cc(C(C)C)c(O)cc2O)n1-c1ccc(OC2CCN(C(=O)C3CCCCN3C(=O)Oc3ccc4nc5c(c(CC)c4c3)Cn3c-5cc4c(c3=O)COC(=O)[C@]4(O)CC)CC2)cc1 (stereo partly drawn) [SDC-TRAP-0216, (S)-4,11-diethyl-4-hydroxy-3,14-dioxo-3,4,12,14-tetrahydro-1H-pyrano[3′,4′:6,7]indolizino[1,2-b]quinolin-9-yl 2-(4-(4-(3-(2,4-dihydroxy-5-isopropylphenyl)-5-(ethylcarbamoyl)-4H-1,2,4-triazol-4-yl)phenoxy)piperidine-1-carbonyl)piperidine-1-carboxylate]",67.7%
8,"CCNC(=O)c1nnc(-c2cc(C(C)C)c(O)cc2O)n1-c1ccc(Oc2ccc(C(=O)N3CCC(OC(=O)OC4(CC)C(=O)OCc5c4cc4n(c5=O)Cc5c-4nc4ccc(O)cc4c5CC)CC3)cc2)cc1 (stereo not drawn) [SDC-TRAP-0203, 4,11-Diethyl-9-hydroxy-3,14-dioxo-3,4,12,14-tetrahydro-1H-pyrano[3′,4′:6,7]indolizino[1,2-b]quinolin-4-yl (1-(4-(4-(3-(2,4-dihydroxy-5-isopropylphenyl)-5-(ethylcarbamoyl)-4H-1,2,4-triazol-4-yl)phenoxy)benzoyl)piperidin-4-yl) carbonate]",71.2%
9,"CCc1c2c(nc3ccc(OC(=O)N(C)CCCCN4CCN(Cc5ccc(-n6c(O)nnc6-c6cc(C(C)C)c(O)cc6O)cc5)CC4)cc13)-c1cc3c(c(=O)n1C2)COC(=O)C3(O)CC (stereo not drawn) [SDC-TRAP-0044, 4,11-diethyl-4-hydroxy-3,14-dioxo-3,4,12,14-tetrahydro-1H-pyrano[3′,4′:6,7]indolizino[1,2-b]quinolin-9-yl (4-(4-(4-(3-(2,4-dihydroxy-5-isopropylphenyl)-5-hydroxy-4H-1,2,4-triazol-4-yl)benzyl)piperazin-1-yl)butyl)(methyl)carbamate]",61%
10,"CCc1c2c(nc3ccc(O)cc13)-c1cc3c(c(=O)n1C2)COC(=O)C3(CC)OC(=O)N(C)CCOCCn1ccc2cc(-n3c(O)nnc3-c3cc(C(C)C)c(O)cc3O)ccc21 (stereo not drawn) [SDC-TRAP-0037, 4,11-diethyl-9-hydroxy-3,14-dioxo-3,4,12,14-tetrahydro-1H-pyrano[3′,4′:6,7]indolizino[1,2-b]quinolin-4-yl (2-(2-(5-(3-(2,4-dihydroxy-5-isopropylphenyl)-5-hydroxy-4H-1,2,4-triazol-4-yl)-1H-indol-1-yl)ethoxy)ethyl)(methyl)carbamate]",95%
11,"CCNC(=O)c1nnc(-c2cc(C(C)C)c(O)cc2O)n1-c1ccc2c(ccn2CCC2CCN(C(=O)O[C@]3(CC)C(=O)OCc4c3cc3n(c4=O)Cc4c-3nc3ccc(O)cc3c4CC)CC2)c1 [SDC-TRAP-0208, (S)-4,11-diethyl-9-hydroxy-3,14-dioxo-3,4,12,14-tetrahydro-1H-pyrano[3′,4′:6,7]indolizino[1,2-b]quinolin-4-yl 4-(2-(5-(3-(2,4-dihydroxy-5-isopropylphenyl)-5-(ethylcarbamoyl)-4H-1,2,4-triazol-4-yl)-1H-indol-1-yl)ethyl)piperidine-1-carboxylate]",86.1%

# Same assay, conditions: mouse, plasma, 1 h, 10 μM
row,SMILES,% Remaining
1,"CC(C)c1cc(-c2nnc(O)n2-c2ccc(CN3CCN(C(=O)Oc4ccc(COC(=O)Nc5cccc6c5CN(C5CCC(=O)NC5=O)C6=O)cc4)CC3)c(F)c2)c(O)cc1O (stereo not drawn) [SDC-TRAP-0171, 4-((((2-(2,6-dioxopiperidin-3-yl)-1-oxoisoindolin-4-yl)carbamoyl)oxy)methyl)phenyl-4-(4-(3-(2,4-dihydroxy-5-isopropylphenyl)-5-hydroxy-4H-1,2,4-triazol-4-yl)-2-fluorobenzyl)piperazine-1-carboxylate]",17.7%
2,"CCNC(=O)c1nnc(-c2cc(C(C)C)c(O)cc2O)n1-c1ccc(C(=O)N(C)CC(=O)Nc2cccc3c2CN(C2CCC(=O)NC2=O)C3=O)cc1 (stereo not drawn) [SDC-TRAP-0147, 5-(2,4-dihydroxy-5-isopropylphenyl)-4-(4-((2-((2-(2,6-dioxopiperidin-3-yl)-1-oxoisoindolin-4-yl)amino)-2-oxoethyl)(methyl)carbamoyl)phenyl)-N-ethyl-4H-1,2,4-triazole-3-carboxamide]",98.1%
3,"COc1cc(O)c(-c2nnc(C(=O)NC(C)C)n2-c2ccc(CN3CCC(C(=O)Nc4cccc5c4CN(C4CCC(=O)NC4=O)C5=O)CC3)cc2)cc1C(C)C (stereo not drawn) [SDC-TRAP-0115, N-(2-(2,6-dioxopiperidin-3-yl)-1-oxoisoindolin-4-yl)-1-(4-(3-(2-hydroxy-5-isopropyl-4-methoxyphenyl)-5-(isopropylcarbamoyl)-4H-1,2,4-triazol-4-yl)benzyl)piperidine-4-carboxamide]",85.9%
4,"CCNC(=O)c1nnc(-c2cc(C(C)C)c(O)cc2O)n1-c1ccc(Oc2ccc(C(=O)N3CCC(COC(=O)Nc4cccc5c4CN(C4CCC(=O)NC4=O)C5=O)CC3)cc2)cc1 (stereo not drawn) [SDC-TRAP-0125, (1-(4-(4-(3-(2,4-Dihydroxy-5-isopropylphenyl)-5-(ethylcarbamoyl)-4H-1,2,4-triazol-4-yl)phenoxy)benzoyl)piperidin-4-yl)methyl (2-(2,6-dioxopiperidin-3-yl)-1-oxoisoindolin-4-yl)carbamate]",99.4%
5,"CC(C)c1cc(-c2nnc(O)n2-c2ccc(CN3CCN(C(=O)c4ccc(COC(=O)Nc5cccc6c5CN(C5CCC(=O)NC5=O)C6=O)cc4)CC3)c(F)c2)c(O)cc1O (stereo not drawn) [SDC-TRAP-0157, 4-(4-(4-(3-(2,4-dihydroxy-5-isopropylphenyl)-5-hydroxy-4H-1,2,4-triazol-4-yl)-2-fluorobenzyl)piperazine-1-carbonyl)benzyl (2-(2,6-dioxopiperidin-3-yl)-1-oxoisoindolin-4-yl)carbamate]",81.4%
6,"CCc1c2c(nc3ccc(O)cc13)-c1cc3c(c(=O)n1C2)COC(=O)C3(CC)OC(=O)N(C)CCCCN1CCN(Cc2ccc(-n3c(O)nnc3-c3cc(C(C)C)c(O)cc3O)cc2)CC1 (stereo not drawn) [SDC-TRAP-0055, 4,11-diethyl-9-hydroxy-3,14-dioxo-3,4,12,14-tetrahydro-1H-pyrano[3′,4′:6,7]indolizino[1,2-b]quinolin-4-yl (4-(4-(4-(3-(2,4-dihydroxy-5-isopropylphenyl)-5-hydroxy-4H-1,2,4-triazol-4-yl)benzyl)piperazin-1-yl)butyl)(methyl)carbamate]",103%
7,"CC(C)c1cc(-c2nnc(O)n2-c2ccc(CC(=O)N(C)CCOC(=O)Nc3cccc4c3CN(C3CCC(=O)NC3=O)C4=O)cc2)c(O)cc1O (stereo not drawn) [SDC-TRAP-0127, 2-(2-(4-(3-(2,4-dihydroxy-5-isopropylphenyl)-5-hydroxy-4H-1,2,4-triazol-4-yl)phenyl)-N-methylacetamido)ethyl(2-(2,6-dioxopiperidin-3-yl)-1-oxoisoindolin-4-yl)carbamate]",87.3%
